The target in the assay is rat MCH-1 (Rattus norvegicus, UniProt P97639). Put plainly: Radioligand binding assay at cloned rat MCH1 receptor ([3H] Compound A). Details: host or cells: Peak rapid 293 (Peakr293) cells, transient calcium phosphate transfection, membranes. The conditions noted are these: cloned rat MCH1 receptor, 0.08 nM [3H] Compound A, read-out: Ki (nM) rMCH1.

Like-named read-outs stand apart in the source and are kept apart here.

Chain of rat MCH-1 (P97639 whole entry): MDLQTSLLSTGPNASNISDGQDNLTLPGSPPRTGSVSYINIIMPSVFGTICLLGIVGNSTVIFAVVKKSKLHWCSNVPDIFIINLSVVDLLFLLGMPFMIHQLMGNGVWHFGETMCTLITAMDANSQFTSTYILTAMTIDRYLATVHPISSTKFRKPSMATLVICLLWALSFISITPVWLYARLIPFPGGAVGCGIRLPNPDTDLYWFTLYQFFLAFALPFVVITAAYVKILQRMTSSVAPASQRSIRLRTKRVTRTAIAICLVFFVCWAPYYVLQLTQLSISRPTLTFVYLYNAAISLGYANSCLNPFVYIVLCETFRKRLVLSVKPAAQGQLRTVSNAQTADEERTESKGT

In general, Ki refers to the equilibrium dissociation constant of an inhibitor or competing ligand from its target. In the case of `O=C(Nc1cccc(C2CCN(CCCCSc3ccccc3)CC2)c1)C1CC1` [Example 584], the Ki (Peakr293 cell membranes) was 51.8 nM.

In the case of `CC(C)C(=O)Nc1cccc(C2CCN(Cc3cn(-c4ccc(F)cc4)c4cc(Cl)ccc34)CC2)c1` [Example 471], for the setting “Peakr293 cell membranes”, the Ki turned out to be 4.3 nM.

`COc1ccc(Oc2cccc(CN3CCC(c4cccc(NC(=O)C(C)C)c4)CC3)c2)cc1` [Example 212]: the Ki (membranes from Peakr293 cells) was determined as 43 nM.

With `Cc1cccc(-n2ccc3c(CN4CCC(c5cccc(NC(=O)C(C)C)c5)CC4)cccc32)c1C` [Example 874], the inhibition constant (Ki) (Peakr293 cell membranes) turned out to be 247 nM.

As for `COc1ccc2[nH]c(-c3ccc(Cl)cc3)c(CCCN3CCC(c4cccc(NC(=O)C(C)C)c4)CC3)c2c1` [Example 713], the Ki (Peakr293 cell membranes) was found to be 7.7 nM.

With `CC(C)C(=O)Nc1cccc(C2CCN(CCC(Oc3ccc(Br)cc3)c3ccc(F)cc3)CC2)c1` (centres unmarked) [Example 135], the inhibition constant Ki (membranes from Peakr293 cells) stood at 10.9 nM.

On to `CC(C)C(=O)Nc1cccc(C2CCN(CCCNC(=O)c3csc4ccccc34)CC2)c1` [Example 330], for which, for the setting “membranes from Peakr293 cells”, the inhibition constant Ki worked out at 215 nM.

`CC1=C(C(=O)NCCCN2CCC(c3cccc(NC(=O)C(C)C)c3)CC2)C(c2ccc(F)c(F)c2)CC(=O)N1` (centres unmarked) [Example 795]: the inhibitory constant (Ki) (Peakr293 cell membranes) was 51.1 nM.

Take `CC(C)C(=O)Nc1cccc(C2CCN(Cc3ccc(N4CCOCC4)c([N+](=O)[O-])c3)CC2)c1` [Example 219]: the inhibition constant Ki (membranes from Peakr293 cells) was 68.8 nM.

With `CC(C)C(=O)Nc1cccc(C2CCN(Cc3ccc4c(ccn4-c4ccccc4Cl)c3)CC2)c1` [Example 849], the Ki (Peakr293 cell membranes) was found to be 9.4 nM.

For `Cc1cccc2c(CCCN3CCC(c4cccc(NC(=O)C(C)C)c4)CC3)c(-c3ccc(I)cc3)[nH]c12` [Example 746], the Ki (Peakr293 cell membranes) is 8 nM.

For the compound `CC(C)C(=O)Nc1cccc(C2CCN(Cc3ccc(N(c4ccccc4)c4ccccc4)cc3)CC2)c1` [Example 114], the Ki (membranes from Peakr293 cells) was found to be 3.6 nM.

On to `Cc1ccccc1OC(CCN1CCC(c2cccc(NC(=O)C(C)C)c2)CC1)c1ccc(Br)cc1` (centres unmarked) [Example 133], for which the Ki (membranes from Peakr293 cells) stood at 14.1 nM.

Turning to `COc1ccc(C(=O)NCCCCN2CCC(c3cccc(NC(=O)C(C)C)c3)CC2)cc1OC` [Example 679], the inhibition constant Ki (Peakr293 cell membranes) was 97.9 nM.

In the case of `CC(C)C(=O)Nc1cccc(C2CCN(CCCCC(Oc3cc(C(F)(F)F)ccc3F)c3cccc(F)c3)CC2)c1` (centres unmarked) [Example 932], for the setting “Peakr293 cell membranes”, the Ki was 9.4 nM.

`CC(C)C(=O)Nc1cccc(C2CCN(CCCCC(=O)N3C(=O)OC[C@H]3c3ccc(F)c(F)c3)CC2)c1` [Example 572]: the Ki (Peakr293 cell membranes) is 181 nM.

In the case of `CC(C)C(=O)Nc1cccc(C2CCN(CCC(Oc3ccc(Cl)cc3)c3ccc(Cl)cc3)CC2)c1` (centres unmarked) [Example 172], under “membranes from Peakr293 cells”, the Ki stood at 3 nM.

`Cc1ccc(OCCCCN2CCC(c3cccc(NC(=O)C(C)C)c3)CC2)cc1C` [Example 379]: the Ki (membranes from Peakr293 cells) amounted to 204 nM.

For the compound `Cc1ccc2[nH]c(-c3ccc(I)cc3)c(CCCN3CCC(c4cccc(NC(=O)C(C)C)c4)CC3)c2c1` [Example 745], for the setting “Peakr293 cell membranes”, the Ki is 15.8 nM.

With `CC(C)C(=O)Nc1cccc(C2CCN(Cc3c(OCc4ccc(C#N)cc4)ccc4ccccc34)CC2)c1` [Example 190], for the setting “membranes from Peakr293 cells”, the inhibition constant (Ki) amounted to 436 nM.

For `CC(C)C(=O)Nc1cccc(C2CCN(CCNC(=O)C(c3ccccc3)c3ccccc3)CC2)c1` [Example 107], under “membranes from Peakr293 cells”, the Ki is 1.7 nM.

Consider `CC(C)C(=O)Nc1cccc(C2CCN(CCCCC(=O)c3ccccc3Br)CC2)c1` [Example 677], for which the inhibition constant Ki (Peakr293 cell membranes) is 52.3 nM.

As to `CC(C)C(=O)Nc1cccc(C2CCN(CCC(Oc3ccc(Cl)cc3)c3ccc4c(c3)CCC4)CC2)c1` (centres unmarked) [Example 168], the inhibition constant (Ki) (membranes from Peakr293 cells) is 7 nM.

On to `CC(C)C(=O)Nc1cccc(C2CCN(CCCNS(=O)(=O)c3ccc(C(C)(C)C)cc3)CC2)c1` [Example 645], for which the Ki (Peakr293 cell membranes) is 85.3 nM.

Take `Cc1onc(-c2ccccc2)c1C(=O)OCCCCCCN1CCC(c2cccc(NC(=O)C(C)C)c2)CC1` [Example 298, 6-{4-[3-(ISOBUTYRYLAMINO)PHENYL]-1-PIPERIDINYL}HEXYL 5-METHYL-3-PHENYL-4-ISOXAZOLECARBOXYLATE]: the inhibitory constant (Ki) (membranes from Peakr293 cells) was determined as 40.1 nM.

For the compound `CC(C)C(=O)Nc1cccc(C2CCN(CCCCC(=O)c3ccccc3C(F)(F)F)CC2)c1` [Example 663], under “Peakr293 cell membranes”, the inhibition constant Ki was determined as 73.4 nM.

For the compound `CC(C)C(=O)Nc1cccc(C2CCN(CCCCC(Oc3ccc(F)cc3)c3ccccc3)CC2)c1` (centres unmarked) [Example 940], the Ki (Peakr293 cell membranes) was determined as 1.8 nM.

`CC(C)C(=O)Nc1cccc(C2CCN(CCCc3c(-c4cccc(F)c4)n(C)c4ccccc34)CC2)c1` [Example 705]: the Ki (Peakr293 cell membranes) is 8.5 nM.

Regarding `CC(=O)c1cccc(OC(CCCCCN2CCC(c3cccc(NC(=O)C(C)C)c3)CC2)c2ccc(F)cc2)c1` (centres unmarked) [Example 908], the Ki (Peakr293 cell membranes) was determined as 3.7 nM.

Consider `CCCC(=O)Nc1ccc(C2CCN(CCCCCn3ccc4ccccc43)CC2)cc1` [Example 826], for which the Ki (Peakr293 cell membranes) amounted to 786 nM.

With `CCCCOc1ccc2ccccc2c1CN1CCC(c2cccc(NC(=O)C(C)C)c2)CC1` [Example 189], the Ki (membranes from Peakr293 cells) turned out to be 438 nM.

For the compound `O=C(Nc1cccc(C2CCN(CCCCCSc3ccccc3)CC2)c1)C1CC1` [Example 587], the Ki (Peakr293 cell membranes) is 46.9 nM.

Turning to `CC(C)C(=O)Nc1cccc(C2CCN(Cc3cccc4c3ccn4-c3cccc(Cl)c3Cl)CC2)c1` [Example 857], the inhibition constant Ki (Peakr293 cell membranes) came to 89.8 nM.

Take `Cc1cccc2c(CCN3CCC(c4cccc(NC(=O)C(C)C)c4)CC3)c(-c3ccccc3)[nH]c12` [Example 401]: the inhibition constant Ki (Peakr293 cell membranes) was found to be 44.6 nM.

On to `Cc1ccc(C(=O)CCCN2CCC(c3cccc(N(C)C(=O)C(C)C)c3)CC2)cc1C` [Example 569], for which, where the note is “Peakr293 cell membranes”, the Ki came to 549 nM.

For the compound `CC(C)C(=O)Nc1cccc(C2CCN(Cc3c(Br)cnn3Cc3ccc(Cl)cc3)CC2)c1` [Example 204], where the note is “membranes from Peakr293 cells”, the inhibition constant Ki stood at 39.8 nM.

In the case of `O=C(Nc1cccc(C2CCN(Cc3cn(-c4cccc(Cl)c4)c4cc(Cl)ccc34)CC2)c1)C1CC1` [Example 479], the inhibitory constant (Ki) (Peakr293 cell membranes) is 8.1 nM.

For `Cc1ccccc1NC(=S)N[C@@H](CCN1CCC(c2cccc(NC(=O)C(C)C)c2)CC1)c1ccccc1` [Example 608], under “Peakr293 cell membranes”, the Ki was 34.9 nM.

Consider `COC(=O)c1ccc(OC(CCN2CCC(c3cccc(NC(=O)C(C)C)c3)CC2)c2ccc(Br)cc2)cc1` (centres unmarked) [Example 148, METHYL 4-(1-(4-BROMOPHENYL)-3-{4-[3-(ISOBUTYRYLAMINO)PHENYL]-1-PIPERIDINYL}PROPOXY)BENZOATE], for which the Ki (membranes from Peakr293 cells) came to 24.7 nM.

In the case of `CC(C)C(=O)Nc1cccc(C2CCN(CCCc3cn(-c4ccccc4)c4ccccc34)CC2)c1` [Example 407], under “Peakr293 cell membranes”, the Ki stood at 16.6 nM.

Take `Cc1ccc2[nH]c(-c3ccccc3F)c(CCCN3CCC(c4cccc(NC(=O)C(C)C)c4)CC3)c2c1` [Example 698]: under “Peakr293 cell membranes”, the inhibitory constant (Ki) came to 3 nM.

On to `Cc1ccc(Oc2ccc3[nH]cc(CN4CCC(c5cccc(NC(=O)C(C)C)c5)CC4)c3c2)cc1` [Example 527], for which the inhibitory constant (Ki) (Peakr293 cell membranes) stood at 226 nM.

For the compound `CC(C)C(=O)Nc1cccc(C2CCN(CCCCC(=O)N3C(=O)OC[C@@H]3c3ccc(F)c(F)c3)CC2)c1` [Example 575], the Ki (Peakr293 cell membranes) worked out at 193 nM.

As for `CC(C)C(=O)Nc1cccc(C2CCN(CCCC(=O)c3ccc(Br)cc3)CC2)c1` [Example 947], the Ki (Peakr293 cell membranes) came out at 4.3 nM.

Consider `COc1ccc2[nH]c(-c3cccc(Br)c3)c(CCCN3CCC(c4cccc(NC(=O)C(C)C)c4)CC3)c2c1` [Example 765], for which the inhibition constant Ki (Peakr293 cell membranes) came out at 6.5 nM.

On to `O=C(Nc1cccc(C2CCN(Cc3cn(-c4cccc(Cl)c4)c4ccccc34)CC2)c1)C1CC1` [Example 463], for which the Ki (Peakr293 cell membranes) came to 17.2 nM.

In the case of `Cc1ccc(C2CCN(Cc3ccc(Oc4ccc(F)c(F)c4)cc3)CC2)cc1NC(=O)C(C)C` [Example 269], the inhibitory constant (Ki) (membranes from Peakr293 cells) was found to be 27.4 nM.

As to `O=C(Nc1cccc(C2CCN(Cc3cn(-c4ccccc4F)c4cc(Cl)ccc34)CC2)c1)C1CC1` [Example 473], under “Peakr293 cell membranes”, the Ki turned out to be 11.3 nM.

Regarding `CC(C)C(=O)Nc1cccc(C2CCN(CCCc3c(-c4cccc([N+](=O)[O-])c4)[nH]c4c3ccc3ccccc34)CC2)c1` [Example 767], the inhibitory constant (Ki) (Peakr293 cell membranes) amounted to 34.8 nM.

Take `CC(C)C(=O)Nc1cccc(C2CCN(CCCc3c(-c4cccc(Br)c4)[nH]c4ccc(OC(F)(F)F)cc34)CC2)c1` [Example 751]: the inhibitory constant (Ki) (Peakr293 cell membranes) turned out to be 12.4 nM.

`CCC(=O)Nc1cccc(C2CCN(Cc3c[nH]c4cc(F)ccc34)CC2)c1` [Example 468]: the Ki (Peakr293 cell membranes) amounted to 912 nM.

With `CC(C)C(=O)Nc1cccc(C2CCN(CCC[S+]([O-])c3ccccc3Br)CC2)c1` (centres unmarked) [Example 591], the Ki (Peakr293 cell membranes) came out at 138 nM.

In the case of `CC(C)C(=O)Nc1cccc(C2CCN(Cc3ccc(-c4ccc(C(F)(F)F)cc4Cl)o3)CC2)c1` [Example 220], under “membranes from Peakr293 cells”, the inhibition constant Ki is 159 nM.

On to `COc1ccc2[nH]c(-c3ccc(C(F)(F)F)cc3)c(CCCN3CCC(c4cccc(NC(=O)C(C)C)c4)CC3)c2c1` [Example 689], for which, for the setting “Peakr293 cell membranes”, the inhibition constant Ki was determined as 11.3 nM.

On to `CC(C)C(=O)Nc1cccc(C2CCN(CCCCC(Oc3ccc(F)cc3)c3ccc(F)cc3)CC2)c1` (centres unmarked) [Example 926], for which the Ki (Peakr293 cell membranes) stood at 1.4 nM.

For `CC(C)C(=O)Nc1cccc(C2CCN(CCC(Oc3ccc(Br)cc3)c3ccc(Br)cc3)CC2)c1` (centres unmarked) [Example 158], the Ki (membranes from Peakr293 cells) came to 7.8 nM.

As for `CC(C)C(=O)Nc1cccc(C2CCN(CCCc3c(-c4ccc(Cl)cc4)n(-c4ccccc4)c4ccccc34)CC2)c1` [Example 721], the Ki (Peakr293 cell membranes) was 75.3 nM.

In the case of `CC(C)C(=O)Nc1cccc(C2CCN(CCCCC(O)c3cccc(Cl)c3)CC2)c1` (centres unmarked) [Example 816], under “Peakr293 cell membranes”, the inhibition constant (Ki) was 89.6 nM.

As for `CC(C)C(=O)Nc1cccc(C2CCN(CCCCCn3ccc4ccccc43)CC2)c1` [Example 97], the inhibition constant Ki (membranes from Peakr293 cells) came to 27.3 nM.

Regarding `Cc1onc(-c2ccccc2)c1C(=O)NCCCN1CCC(c2cccc(NC(=O)C(C)C)c2)CC1` [Example 638], the inhibitory constant (Ki) (Peakr293 cell membranes) stood at 29.8 nM.

Turning to `Cc1ccc2[nH]cc(CN3CCC(c4cccc(NC(=O)C(C)C)c4)CC3)c2c1` [Example 445], the Ki (Peakr293 cell membranes) came out at 486 nM.

In the case of `CC(C)C(=O)Nc1cccc(C2CCN(Cc3cn(-c4ccccn4)c4ccccc34)CC2)c1` [Example 501], for the setting “Peakr293 cell membranes”, the Ki amounted to 22.1 nM.

Turning to `CC(C)C(=O)Nc1cccc(C2CCN(CCC(Oc3ccc(C(F)(F)F)cc3)c3ccc4c(c3)CCC4)CC2)c1` (centres unmarked) [Example 164], the inhibition constant Ki (membranes from Peakr293 cells) came to 16.3 nM.

In the case of `CC(C)C(=O)Nc1cccc(C2CCN(CCCc3c(-c4cccc(I)c4)n(-c4ccccc4)c4ccccc34)CC2)c1` [Example 739], the Ki (Peakr293 cell membranes) came to 214 nM.

In the case of `Cc1cccc2c(CCCN3CCC(c4cccc(NC(=O)C(C)C)c4)CC3)c(-c3cccc(Cl)c3)[nH]c12` [Example 722], the Ki (Peakr293 cell membranes) came to 6.4 nM.

(Values after patent publication US6727264B1 (Synaptic Pharmaceutical Corporation, priority 2001, dated 2004).)
